Where “and” joins values, the source holds several entries; their conditions need not be identical. Identical values can stand only once. HELM strings list units from the 5' end as sugar, base in round brackets, then linkage (d deoxyribose, r ribose, m 2'-O-methyl, p phosphodiester). Strings are as the collection lists them, not checked against the first reports. ss, as = sense and antisense strand; [lna] = locked nucleic acid (LNA); [s4r] = 4'-thioribose; [fl2r] = 2'-fluoro
Further: test system not given here.

For the series the following is noted: siRNA.
The substance “RNA1{r(U)p.r(U)p.r(U)p.r(C)p.r(A)p.r(C)p.r(U)p.r(A)p.r(C)p.r(U)p.r(C)p.r(C)p.r(U)p.r(A)p.r(C)p.r(G)p.r(A)p.r(G)p.r(C)p.d(T)p.d(T)}|RNA2{r(G)p.r(C)p.r(U)p.r(C)p.r(G)p.r(U)p.r(A)p.r(G)p.r(G)p.r(A)p.r(G)p.r(U)p.r(A)p.r(G)p.r(U)p.r(G)p.r(A)p.r(A)p.r(A)p.d(T)p.d(T)}$$$RNA1{StrandType:ss}|RNA2{StrandType:as}$” yielded a target mRNA knockdown of 0%. “RNA1{m(G)p.r(G)p.m(A)p.r(A)p.m(G)p.r(U)p.m(C)p.r(C)p.m(A)p.r(C)p.m(C)p.r(U)p.m(U)p.r(C)p.m(U)p.r(C)p.m(C)p.r(G)p.m(A)p.r(T)p.r(T)}|RNA2{m(U)p.r(C)p.r(G)p.r(G)p.r(A)p.r(G)p.r(A)p.r(A)p.r(G)p.r(G)p.m(U)p.r(G)p.r(G)p.r(A)p.r(C)p.m(U)p.m(U)p.r(C)p.r(C)p.r(T)p.r(T)}$$$RNA1{StrandType:ss}|RNA2{StrandType:as}$”: the target mRNA knockdown amounted to 27%. Substance “RNA1{m(A)p.m(A)p.m(G)p.m(G)p.m(A)p.m(G)p.m(A)p.m(U)p.m(C)p.m(A)p.m(A)p.m(C)p.m(A)p.m(U)p.m(U)p.m(U)p.m(U)p.m(C)p.m(A)p.r(T)p.r(T)}|RNA2{[fl2r](U)p.r(G)p.r(A)p.r(A)p.r(A)p.r(A)p.[fl2r](U)p.r(G)p.r(U)p.r(U)p.r(G)p.r(A)p.[fl2r](U)p.[fl2r](C)p.[fl2r](U)p.[fl2r](C)p.[fl2r](C)p.[fl2r](U)p.[fl2r](U)p.r(T)p.r(T)}$$$RNA1{StrandType:ss}|RNA2{StrandType:as}$” returned a target mRNA knockdown of 71%. For “RNA1{r(C)p.[fl2r](C)p.r(A)p.r(G)p.r(C)p.r(G)p.r(A)p.r(G)p.r(C)p.r(C)p.[fl2r](C)p.r(A)p.r(A)p.r(A)p.r(A)p.[fl2r](G)p.r(A)p.r(A)p.r(A)p.r(T)p.r(T)}|RNA2{r(U)p.r(U)p.r(U)p.r(C)p.r(U)p.r(U)p.r(U)p.[fl2r](U)p.r(G)p.r(G)p.r(G)p.r(C)p.r(U)p.r(C)p.r(G)p.r(C)p.[fl2r](U)p.r(G)p.r(G)p.r(T)p.r(T)}$$$RNA1{StrandType:ss}|RNA2{StrandType:as}$”, the target mRNA knockdown stood at 82%.

For “RNA1{r(G)p.r(A)p.r(A)p.m(U)p.r(A)p.r(A)p.r(C)p.r(C)p.m(U)p.r(G)p.r(A)p.r(A)p.r(C)p.r(G)p.r(U)p.m(C)p.r(A)p.r(C)p.r(C)p.r(T)p.r(T)}|RNA2{r(G)p.r(G)p.m(U)p.r(G)p.r(A)p.r(C)p.r(G)p.r(U)p.r(U)p.m(C)p.r(A)p.r(G)p.r(G)p.r(U)p.m(U)p.r(A)p.r(U)p.r(U)p.r(C)p.r(T)p.r(T)}$$$RNA1{StrandType:ss}|RNA2{StrandType:as}$”, the target mRNA knockdown was 51% and 69%. Turning to “RNA1{[s4r](A)p.[s4r](A)p.[s4r](A)p.[s4r](C)p.r(A)p.r(U)p.r(G)p.r(C)p.r(A)p.r(G)p.r(A)p.r(A)p.r(A)p.r(A)p.r(U)p.[s4r](G)p.[s4r](C)p.[s4r](C)p.[s4r](U)p.r(T)p.r(T)}|RNA2{r(C)p.r(A)p.r(G)p.r(C)p.r(A)p.r(U)p.r(U)p.r(U)p.r(U)p.r(C)p.r(U)p.r(G)p.r(C)p.r(A)p.r(U)p.[s4r](G)p.[s4r](U)p.[s4r](U)p.[s4r](U)p.r(T)p.r(T)}$$$RNA1{StrandType:ss}|RNA2{StrandType:as}$”, the target mRNA knockdown came to 87.3%. In the case of “RNA1{m(A)p.r(U)p.m(A)p.r(C)p.m(U)p.r(U)p.m(G)p.r(G)p.m(C)p.r(G)p.m(G)p.r(G)p.m(C)p.r(U)p.m(C)p.r(U)p.m(U)p.r(U)p.m(C)p.r(T)p.r(T)}|RNA2{r(G)p.r(A)p.r(A)p.r(A)p.r(G)p.r(A)p.r(G)p.r(C)p.r(C)p.r(C)p.r(G)p.r(C)p.r(C)p.r(A)p.r(A)p.r(G)p.r(U)p.r(A)p.r(U)p.r(T)p.r(T)}$$$RNA1{StrandType:ss}|RNA2{StrandType:as}$”, the target mRNA knockdown was 19%. The value for “RNA1{r(A)p.r(G)p.r(A)p.m(U)p.r(G)p.r(U)p.r(U)p.r(C)p.r(U)p.r(C)p.r(G)p.m(U)p.r(A)p.r(A)p.r(G)p.r(G)p.r(A)p.r(C)p.r(G)p.r(T)p.r(T)}|RNA2{r(C)p.r(G)p.r(U)p.r(C)p.r(C)p.r(U)p.m(U)p.r(A)p.r(C)p.r(G)p.r(A)p.r(G)p.r(A)p.r(A)p.m(C)p.r(A)p.r(U)p.r(C)p.r(U)p.r(T)p.r(T)}$$$RNA1{StrandType:ss}|RNA2{StrandType:as}$” was 60%; that for “RNA1{[fl2r](G)p.r(A)p.[fl2r](C)p.r(C)p.[fl2r](A)p.r(C)p.[fl2r](G)p.r(A)p.[fl2r](A)p.r(G)p.[fl2r](A)p.r(G)p.[fl2r](U)p.r(U)p.[fl2r](A)p.r(A)p.[fl2r](C)p.r(C)p.[fl2r](C)p.r(T)p.r(T)}|RNA2{r(G)p.r(G)p.r(G)p.r(U)p.r(U)p.r(A)p.r(A)p.r(C)p.r(U)p.r(C)p.r(U)p.r(U)p.r(C)p.r(G)p.r(U)p.r(G)p.r(G)p.r(U)p.r(C)p.r(T)p.r(T)}$$$RNA1{StrandType:ss}|RNA2{StrandType:as}$” was 51%.

For “RNA1{r(C)p.r(C)p.r(G)p.r(A)p.r(G)p.r(A)p.r(G)p.m(C)p.r(U)p.r(C)p.m(U)p.r(C)p.r(C)p.m(U)p.r(A)p.r(C)p.r(C)p.r(U)p.r(U)p.r(T)p.r(T)}|RNA2{r(A)p.r(A)p.r(G)p.r(G)p.m(U)p.r(A)p.r(G)p.r(G)p.r(A)p.r(G)p.r(A)p.r(G)p.r(C)p.r(U)p.r(C)p.r(U)p.r(C)p.r(G)p.r(G)p.r(T)p.r(T)}$$$RNA1{StrandType:ss}|RNA2{StrandType:as}$”, the target mRNA knockdown was 72%. “RNA1{m(U)p.r(A)p.m(A)p.r(A)p.m(G)p.r(C)p.m(U)p.r(G)p.m(G)p.r(A)p.m(A)p.r(A)p.m(G)p.r(G)p.m(G)p.r(A)p.m(C)p.r(G)p.m(G)p.r(T)p.r(T)}|RNA2{r(C)p.r(C)p.r(G)p.r(U)p.r(C)p.r(C)p.r(C)p.r(U)p.r(U)p.r(U)p.r(C)p.r(C)p.m(A)p.r(G)p.r(C)p.r(U)p.r(U)p.r(U)p.m(A)p.r(T)p.r(T)}$$$RNA1{StrandType:ss}|RNA2{StrandType:as}$” registered a target mRNA knockdown of 29%. The value for “RNA1{r(A)p.r(A)p.r(C)p.r(C)p.r(C)p.r(A)p.r(C)p.r(C)p.r(A)p.r(C)p.r(A)p.[fl2r](G)p.r(C)p.[fl2r](U)p.[fl2r](A)p.[fl2r](G)p.r(A)p.r(A)p.r(C)p.r(U)p.r(U)}|RNA2{r(A)p.r(A)p.r(G)p.r(U)p.r(U)p.r(C)p.r(U)p.r(A)p.r(G)p.r(C)p.r(U)p.r(G)p.r(U)p.r(G)p.r(G)p.r(U)p.r(G)p.r(G)p.r(G)p.r(U)p.r(U)}$$$RNA1{StrandType:ss}|RNA2{StrandType:as}$” was 75%; that for “RNA1{m(G)p.r(C)p.m(U)p.r(U)p.m(U)p.r(A)p.m(A)p.r(G)p.m(G)p.r(A)p.m(A)p.r(C)p.m(U)p.r(G)p.m(G)p.r(A)p.m(A)p.r(G)p.m(G)p.r(T)p.r(T)}|RNA2{r(C)p.r(C)p.r(U)p.r(U)p.r(C)p.r(C)p.r(A)p.m(G)p.r(U)p.r(U)p.r(C)p.r(C)p.r(U)p.r(U)p.r(A)p.r(A)p.r(A)p.m(G)p.r(C)p.r(T)p.r(T)}$$$RNA1{StrandType:ss}|RNA2{StrandType:as}$” was 51%; that for “RNA1{r(C)p.r(U)p.r(U)p.r(A)p.r(C)p.r(G)p.r(C)p.r(U)p.r(G)p.r(A)p.r(G)p.r(U)p.r(A)p.r(C)p.r(U)p.r(U)p.r(C)p.r(G)p.r(A)p.[lna](T)p.[lna](T)}|RNA2{r(U)p.r(C)p.r(G)p.r(A)p.r(A)p.r(G)p.r(U)p.r(A)p.r(C)p.r(U)p.r(C)p.r(A)p.r(G)p.r(C)p.r(G)p.r(U)p.r(A)p.r(A)p.r(G)p.d(T)p.d(T)}$$$RNA1{StrandType:ss}|RNA2{StrandType:as}$” was 96%.

“RNA1{[fl2r](G)p.r(C)p.[fl2r](U)p.r(U)p.[fl2r](C)p.r(G)p.[fl2r](G)p.r(A)p.[fl2r](A)p.r(A)p.[fl2r](C)p.r(U)p.[fl2r](G)p.r(G)p.[fl2r](A)p.r(C)p.[fl2r](A)p.r(U)p.[fl2r](C)p.r(T)p.r(T)}|RNA2{[fl2r](G)p.r(A)p.r(U)p.[fl2r](G)p.r(U)p.r(C)p.r(C)p.r(A)p.[fl2r](G)p.r(U)p.r(U)p.r(U)p.r(C)p.r(C)p.[fl2r](G)p.r(A)p.r(A)p.[fl2r](G)p.r(C)p.r(T)p.r(T)}$$$RNA1{StrandType:ss}|RNA2{StrandType:as}$” gave a target mRNA knockdown of 29%. Substance “RNA1{[fl2r](A)p.r(C)p.[fl2r](C)p.r(U)p.[fl2r](U)p.r(A)p.[fl2r](A)p.r(G)p.[fl2r](G)p.r(A)p.[fl2r](C)p.r(C)p.[fl2r](A)p.r(C)p.[fl2r](C)p.r(G)p.[fl2r](G)p.r(A)p.[fl2r](U)p.r(T)p.r(T)}|RNA2{[fl2r](A)p.r(U)p.r(C)p.r(C)p.r(G)p.r(G)p.r(U)p.r(G)p.r(G)p.r(U)p.r(C)p.r(C)p.r(U)p.r(U)p.[fl2r](A)p.[fl2r](A)p.r(G)p.r(G)p.r(U)p.r(T)p.r(T)}$$$RNA1{StrandType:ss}|RNA2{StrandType:as}$” had a target mRNA knockdown of 41%.

For “RNA1{[fl2r](U)p.r(U)p.[fl2r](C)p.r(U)p.[fl2r](A)p.r(A)p.[fl2r](C)p.r(C)p.[fl2r](G)p.r(G)p.[fl2r](G)p.r(C)p.[fl2r](A)p.r(G)p.[fl2r](C)p.r(U)p.[fl2r](U)p.r(C)p.[fl2r](U)p.r(T)p.r(T)}|RNA2{r(A)p.r(G)p.r(A)p.r(A)p.r(G)p.r(C)p.r(U)p.r(G)p.r(C)p.r(C)p.r(C)p.r(G)p.r(G)p.r(U)p.r(U)p.r(A)p.r(G)p.r(A)p.r(A)p.r(T)p.r(T)}$$$RNA1{StrandType:ss}|RNA2{StrandType:as}$”, the target mRNA knockdown was 61%. “RNA1{m(C)p.r(U)p.m(A)p.r(G)p.m(U)p.r(C)p.m(G)p.r(A)p.m(A)p.r(A)p.m(G)p.r(A)p.m(A)p.r(A)p.m(A)p.r(C)p.m(G)p.r(G)p.m(G)p.r(T)p.r(T)}|RNA2{r(C)p.r(C)p.r(C)p.r(G)p.r(U)p.r(U)p.r(U)p.r(U)p.r(C)p.r(U)p.r(U)p.r(U)p.r(C)p.r(G)p.m(A)p.r(C)p.r(U)p.m(A)p.r(G)p.r(T)p.r(T)}$$$RNA1{StrandType:ss}|RNA2{StrandType:as}$”: the target mRNA knockdown turned out to be 23%. The substance “RNA1{r(A)p.r(U)p.r(G)p.r(G)p.r(G)p.r(A)p.r(G)p.r(A)p.r(A)p.r(G)p.m(U)p.r(A)p.r(G)p.r(U)p.r(C)p.r(C)p.r(C)p.r(C)p.r(C)p.r(T)p.r(T)}|RNA2{r(G)p.r(G)p.r(G)p.r(G)p.r(G)p.r(A)p.r(C)p.m(U)p.r(A)p.r(C)p.r(U)p.r(U)p.r(C)p.r(U)p.r(C)p.r(C)p.r(C)p.r(A)p.r(U)p.r(T)p.r(T)}$$$RNA1{StrandType:ss}|RNA2{StrandType:as}$” returned a target mRNA knockdown of 84%.

Source of the values: the OligoGym collection.
